From patent US7022875B2, “Thiobutacin and antifungal and antioomycete composition for controlling plant diseases using the same” (Korea University Industry and Academy Cooperation Foundation, priority 2003, dated 2006)
Values after ≈ are worked out from the molar mass of the structure shown.

Legend:
[1] = system: Phytophthora capsici infection on pepper plants; assay: Control efficacy against Phytophthora blight on pepper plants in a growth room; format: in vivo
Protocol: The commercial fungicide metalaxyl was used to compare the antifungal activity with thiobutacin against Phytophthora capsici infection on pepper plants in a growth room. Before the pepper plant was inoculated with Phytophthora capsici infection, disease severity was determined both for each treated with various concentrations of thiobutacin and metalaxyl and for the untreated control. Disease severity on pepper plants was rated daily after inoculation based on a scale 0-5: 0=no visible disease symptoms; 1=leaves slightly wilted with brownish lesions beginning to appear on stems; 2=30-50% of entire plant diseased; 3=50-70% of entire plant diseased; 4=70-90% of entire plant diseased; and 5=plant dead.

Saccharomyces cerevisiae = assay: microbe, parasite or virus in culture; format: cell-based; details: 96 h, 28° C., 4 days
[2] = system: Erwinia carotovora subsp. carotovora; assay: microbe, parasite or virus in culture; format: cell-based; details: Pectobacterium carotovorum, 96 h; 28° C., 4 days
[3] = system: Colletotrichum orbiculare; assay: MIC in microtiter plates; format: cell-based
Candida albicans = assay: microbe, parasite or virus in culture; format: cell-based; details: 96 h, 28° C., 4 days
Ralstonia solanacearum = assay: microbe, parasite or virus in culture; format: cell-based; details: 96 h
Magnaporthe grisea = assay: microbe, parasite or virus in culture; format: cell-based
Rhizoctonia solani = assay: MIC in microtiter plates; format: cell-based
Cladosporium cucumerinum = assay: MIC in microtiter plates; format: cell-based; details: 96 h, 28° C., 4 days, complete inhibition of growth
Botrytis cinerea = assay: MIC in microtiter plates; format: cell-based; details: 96 h, 28° C., 4 days, complete inhibition of growth
Bacillus subtilis = assay: microbe, parasite or virus in culture; format: cell-based; details: 96 h, 28° C., 4 days
[4] = system: Fusarium oxysporum f.sp. cucumerinum; assay: MIC in microtiter plates; format: cell-based
Phytophthora capsici = assay: microbe, parasite or virus in culture; format: cell-based; details: 96 h, 28° C., 4 days
Alternaria mali = assay: MIC in microtiter plates; format: cell-based
[5] = system: Xanthomonas campestris pv. Vesicatoria; assay: microbe, parasite or virus in culture; format: cell-based; details: 96 h, 28° C., 4 days
[6] = from 4 days after inoculation, treated plants
[7] = from 5 days after inoculation, 10 μg/ml
[8] = 96 h, 28° C., 4 days, complete inhibition of growth

## COCC(=O)N(c1c(C)cccc1C)C(C)C(=O)OC (stereo not drawn) [metalaxyl, reference compound]
[1]; [6]
  disease symptoms on pepper plants: did not exhibit any symptoms
[1]; [7]
  disease symptoms on pepper plants: slight disease symptoms
[1]; from 5 days after inoculation, 50 μg/ml
  disease symptoms on pepper plants: exhibited the disease development in the leaves
[1]; higher concentrations than 100 μg/ml
  disease symptoms on pepper plants: did not show any phytophthora development

## CSC(CC(=O)c1ccccc1N)C(=O)O (stereo not drawn) [thiobutacin, 4-(2-aminophenyl)-4-oxo-2-methylthio-butanoic acid]
Saccharomyces cerevisiae
  MIC: 30 µg/mL (≈ 125 µM)
[2]
  MIC: > 100 µg/mL
[3]
  growth inhibition (in words): not inhibited
[3]; [8]
  MIC: > 100 µg/mL
Candida albicans
  MIC: > 100 µg/mL
[1]; after 10 days, 100 μg/ml
  disease symptoms on pepper plants: slight damages
[1]; after 10 days, 500 μg/ml
  disease symptoms on pepper plants: did not show any phytophthora infection
[1]; [6]
  disease symptoms on pepper plants: did not exhibit any symptoms
[1]; [7]
  disease symptoms on pepper plants: exhibited the disease development in the leaves
Ralstonia solanacearum
  MIC: > 100 µg/mL
Magnaporthe grisea; Magnaporthe grisea
  growth inhibition (in words): not inhibited
Magnaporthe grisea; Pyricularia oryzae, 96 h
  MIC: > 100 µg/mL
Rhizoctonia solani
  growth inhibition (in words): not inhibited
Rhizoctonia solani; [8]
  MIC: > 100 µg/mL
Cladosporium cucumerinum
  MIC: 50 µg/mL (≈ 209 µM)
Botrytis cinerea
  MIC: 50 µg/mL (≈ 209 µM)
Bacillus subtilis
  MIC: > 100 µg/mL
[4]; 96 h, Fusarium oxysporum f.sp. cucumerinum, 28° C., 4 days, complete inhibition of growth
  MIC: > 100 µg/mL
[4]; Fusarium oxysporum f. sp. cucumerinum
  growth inhibition (in words): not inhibited
Phytophthora capsici
  MIC: 10 µg/mL (≈ 41.8 µM)
Alternaria mali
  growth inhibition (in words): not inhibited
Alternaria mali; [8]
  MIC: > 100 µg/mL
[5]
  MIC: > 100 µg/mL
